# Measurements reported in paper PMC12675387, “Receptor interaction profiles of 4-alkoxy-2,6-dimethoxyphenethylamines (Ψ derivatives) and related amphetamines” (Frontiers in Pharmacology, 2025).
# How the values were obtained:
# human TAAR1 = molecular target: T1, human TAAR1 (Homo sapiens, UniProt Q96RJ0); test: Activation potency at human TAAR1 (cAMP assay, HEK 293 cells); assay type: cell-based
# T1 construct: expressed in transfected cells; host or cells: HEK 293 cells
# T1 sequence (Q96RJ0 1-339): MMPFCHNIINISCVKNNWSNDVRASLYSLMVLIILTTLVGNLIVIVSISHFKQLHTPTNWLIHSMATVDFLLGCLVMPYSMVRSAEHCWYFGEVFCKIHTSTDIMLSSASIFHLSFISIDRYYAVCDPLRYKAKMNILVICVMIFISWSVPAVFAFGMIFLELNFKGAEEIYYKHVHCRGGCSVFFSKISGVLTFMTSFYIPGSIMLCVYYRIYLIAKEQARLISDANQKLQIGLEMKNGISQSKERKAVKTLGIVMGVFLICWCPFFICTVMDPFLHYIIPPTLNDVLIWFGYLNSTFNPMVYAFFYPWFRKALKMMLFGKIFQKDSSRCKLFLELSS
# Procedure: The activation potency at the human TAAR1 was determined as previously described by [Luethi et al. (2018)]. In summary, recombinant HEK 293 cells stably transfected with the human TAAR1 were grown in culture flasks composed of 30 mL high glucose DMEM with 10% heat inactivated fetal calf serum, […] Geneticin, and […] hygromycin B at 37 °C and 5% CO2. The cells were grown to 80%–90% confluency before collection. The cells were washed with phosphate-buffer saline (PBS) and 5 mL of trypsin/EDTA solution were added for 5 min at 37 °C to detach the cells from the flask. Then, 45 mL of fresh medium were added to the flask and the total mixture was put into a falcon tube, which was centrifuged for 3 min at 900 rpm at room temperature. The supernatant was aspirated, and the remaining cell pellet was resuspended in fresh medium to a concentration of 5 × 10^5 cells per mL. Next, 100 μL of the cell mixture was transferred to a 96 well plate (BIOCOAT 6640, Becton Dickinson, Allschwil, Switzerland) and incubated for 20 h at 37 °C. For the cAMP assay, the medium was removed and replaced with 50 μL PBS lacking calcium or magnesium ions. The PBS was extracted via snap inversion and the plate was gently tapped on tissue to remove any remaining PBS solution. The plate was then incubated with Krebs-Ringer Bicarbonate buffer (90 μL/well; KRB, Sigma-Aldrich) containing 1 mM IBMX for 1 h at 37 °C and 5% CO2/95% air. Test compounds were investigated in duplicate at various concentrations ranging from 300 pM to 30 μM. A cAMP standard curve (concentration range of 0.13 nM–10 μM) was included on each 96 well plate. Additionally, a reference plate was used containing RO5256390, β-phenylethylamine and p-tyramine. Cells were incubated with either 30 μL of compound solution, β-phenylethylamine (which represented the maximal response) or a basal control in PBS (supplemented with 1 mM IBMX) for 40 min at 37 °C. Thereafter, the cells were incubated with 50 μL of 3× detection mix solution (consisting of Ru-cAMP Alexa700 anti-cAMP antibody and lysis buffer) for 40 min at 37 °C, while covered with black lids and under forceful shaking. The fluorescence (456 nm excitation wavelength; 630 and 700 nm emission wavelengths) was measured using a NanoScan reader (Innovate Optische Messtechnik, Berlin, Germany) and the FRET signal was calculated using the following equation: FRET (700 nm) – P × FRET (630 nm). P was equal to Ru (700 nm)/Ru (630 nm).
# hDAT = hDAT (Homo sapiens, UniProt Q01959); test: Radioligand binding, DAT ([3H]WIN35,428)
# hSERT = hSERT (Homo sapiens, UniProt P31645); test: Radioligand binding, SERT ([3H]citalopram)
# h5-HT1A receptor = molecular target: T2, h5-HT1A receptor (Homo sapiens, UniProt P08908); test: Radioligand binding, 5-HT1A receptor ([3H]8-OH-DPAT)
# T2 sequence (P08908 1-422): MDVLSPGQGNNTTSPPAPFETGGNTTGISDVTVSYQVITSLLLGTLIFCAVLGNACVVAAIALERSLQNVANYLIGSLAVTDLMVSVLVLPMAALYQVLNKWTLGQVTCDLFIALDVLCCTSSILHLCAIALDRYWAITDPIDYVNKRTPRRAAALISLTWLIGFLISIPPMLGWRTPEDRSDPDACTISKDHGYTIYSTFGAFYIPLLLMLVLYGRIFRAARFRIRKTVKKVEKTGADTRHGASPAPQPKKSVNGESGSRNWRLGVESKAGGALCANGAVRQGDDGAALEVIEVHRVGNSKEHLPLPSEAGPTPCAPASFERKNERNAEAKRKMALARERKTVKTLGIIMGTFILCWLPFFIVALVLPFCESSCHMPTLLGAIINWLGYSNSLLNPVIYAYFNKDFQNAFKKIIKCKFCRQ
# h5-HT2A receptor = h5-HT2A receptor (Homo sapiens, UniProt P28223); test: Radioligand binding, 5-HT2A receptor ([3H]ketanserin); conditions: for fold difference in 5-HT2A receptor affinity between Ψ derivative and its 2,4,5-trisubstituted counterpart: TMA-6 vs TMA-2, Ψ-2C-O-16 vs 2C-O-16, Ψ-MALM vs MALM: higher affinity of the Ψ derivative; for Selectivity (binding ratio) 5-HT2A/5-HT1A: preference for 5-HT2A (Ki 5-HT1A divided by Ki 5-HT2A); for Selectivity (binding ratio) 5-HT2A/5-HT2C: preference for 5-HT2A (Ki 5-HT2C divided by Ki 5-HT2A); for fold increase in 5-HT2A affinity over the 4-methoxy analog: pairs Ψ-2C-O-1/Ψ-2C-O-35 and TMA-6/Ψ-DODFMO
# hD2 receptor = hD2 receptor (Homo sapiens, UniProt P14416); test: Radioligand binding, dopaminergic D2 receptor ([3H]spiperone)
# hα2A adrenergic receptor = molecular target: T3, hα2A adrenergic receptor (Homo sapiens, UniProt P08913); test: Radioligand binding, α2A adrenergic receptor ([3H]rauwolscine)
# T3 sequence (P08913 1-465): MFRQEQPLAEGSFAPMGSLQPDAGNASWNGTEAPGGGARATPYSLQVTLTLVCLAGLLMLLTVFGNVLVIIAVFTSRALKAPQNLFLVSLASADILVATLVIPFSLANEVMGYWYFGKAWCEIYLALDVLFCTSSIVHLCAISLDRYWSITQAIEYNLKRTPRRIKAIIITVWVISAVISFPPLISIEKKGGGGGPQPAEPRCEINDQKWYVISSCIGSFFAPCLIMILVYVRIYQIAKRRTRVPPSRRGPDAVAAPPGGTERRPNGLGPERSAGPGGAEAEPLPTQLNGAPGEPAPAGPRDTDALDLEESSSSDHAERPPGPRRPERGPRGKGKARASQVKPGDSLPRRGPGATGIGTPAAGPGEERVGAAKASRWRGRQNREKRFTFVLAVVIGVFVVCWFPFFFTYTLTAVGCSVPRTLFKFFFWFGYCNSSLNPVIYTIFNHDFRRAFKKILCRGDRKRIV
# hSERT, sequence (P31645 whole entry): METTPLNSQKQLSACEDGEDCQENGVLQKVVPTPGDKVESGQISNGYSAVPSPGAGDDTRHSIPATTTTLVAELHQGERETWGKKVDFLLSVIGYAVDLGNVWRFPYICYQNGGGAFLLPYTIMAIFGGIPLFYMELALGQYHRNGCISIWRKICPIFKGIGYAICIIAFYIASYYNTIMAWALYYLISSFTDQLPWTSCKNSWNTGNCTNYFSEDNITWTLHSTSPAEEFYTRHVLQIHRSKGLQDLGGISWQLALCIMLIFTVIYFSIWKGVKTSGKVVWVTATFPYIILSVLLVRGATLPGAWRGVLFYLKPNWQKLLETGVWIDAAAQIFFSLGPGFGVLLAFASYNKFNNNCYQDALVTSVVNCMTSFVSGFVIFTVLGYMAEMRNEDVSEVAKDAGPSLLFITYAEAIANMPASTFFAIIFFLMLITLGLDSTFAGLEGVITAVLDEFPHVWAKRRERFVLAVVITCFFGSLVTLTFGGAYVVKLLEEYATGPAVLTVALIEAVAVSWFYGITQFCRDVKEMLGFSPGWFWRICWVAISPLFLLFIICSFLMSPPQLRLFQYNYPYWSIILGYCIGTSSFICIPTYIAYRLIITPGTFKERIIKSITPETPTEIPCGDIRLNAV
# hD2 receptor, sequence (P14416 whole entry): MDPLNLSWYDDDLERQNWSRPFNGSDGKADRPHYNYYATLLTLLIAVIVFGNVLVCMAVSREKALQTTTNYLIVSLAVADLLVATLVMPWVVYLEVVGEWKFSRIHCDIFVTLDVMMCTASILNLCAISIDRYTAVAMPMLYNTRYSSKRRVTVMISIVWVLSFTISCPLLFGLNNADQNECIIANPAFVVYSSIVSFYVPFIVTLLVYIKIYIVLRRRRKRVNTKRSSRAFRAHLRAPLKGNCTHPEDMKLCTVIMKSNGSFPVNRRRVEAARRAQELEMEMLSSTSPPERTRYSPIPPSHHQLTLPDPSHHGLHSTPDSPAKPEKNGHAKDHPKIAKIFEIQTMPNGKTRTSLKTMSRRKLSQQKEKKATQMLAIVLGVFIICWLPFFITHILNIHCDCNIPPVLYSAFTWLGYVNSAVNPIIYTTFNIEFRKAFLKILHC
# h5-HT2A receptor, sequence (P28223 whole entry): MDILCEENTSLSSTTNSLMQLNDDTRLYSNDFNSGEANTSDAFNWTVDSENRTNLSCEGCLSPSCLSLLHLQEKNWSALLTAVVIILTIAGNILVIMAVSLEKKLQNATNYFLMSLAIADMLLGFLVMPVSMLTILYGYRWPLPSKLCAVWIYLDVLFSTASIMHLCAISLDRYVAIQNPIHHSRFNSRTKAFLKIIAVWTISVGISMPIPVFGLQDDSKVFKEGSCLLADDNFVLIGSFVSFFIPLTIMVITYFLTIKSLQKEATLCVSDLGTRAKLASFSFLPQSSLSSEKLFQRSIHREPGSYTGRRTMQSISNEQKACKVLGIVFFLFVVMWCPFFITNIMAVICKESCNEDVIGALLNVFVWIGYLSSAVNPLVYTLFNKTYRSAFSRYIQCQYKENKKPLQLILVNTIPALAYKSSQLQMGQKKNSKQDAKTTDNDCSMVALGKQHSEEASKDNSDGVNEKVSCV
# hDAT, sequence (Q01959 whole entry): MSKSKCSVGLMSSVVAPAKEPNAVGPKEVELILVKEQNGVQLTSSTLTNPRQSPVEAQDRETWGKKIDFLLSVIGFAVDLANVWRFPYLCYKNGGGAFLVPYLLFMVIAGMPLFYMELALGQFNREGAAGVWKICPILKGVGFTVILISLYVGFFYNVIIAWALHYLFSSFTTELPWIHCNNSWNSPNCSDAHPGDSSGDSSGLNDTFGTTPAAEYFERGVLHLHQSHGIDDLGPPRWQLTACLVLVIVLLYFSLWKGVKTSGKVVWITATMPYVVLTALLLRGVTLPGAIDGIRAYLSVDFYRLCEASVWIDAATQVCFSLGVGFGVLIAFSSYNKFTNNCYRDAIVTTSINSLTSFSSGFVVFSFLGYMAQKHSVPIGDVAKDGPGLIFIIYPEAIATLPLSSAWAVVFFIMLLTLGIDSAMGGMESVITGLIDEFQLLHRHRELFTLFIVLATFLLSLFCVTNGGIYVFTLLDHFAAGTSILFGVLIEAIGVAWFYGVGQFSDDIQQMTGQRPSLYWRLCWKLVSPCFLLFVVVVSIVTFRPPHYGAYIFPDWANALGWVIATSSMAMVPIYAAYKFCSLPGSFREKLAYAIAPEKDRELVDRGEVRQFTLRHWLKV
Structure (SMILES),EC50 (human TAAR1),"Ki (hDAT; hDAT Ki ± SD, [3H]WIN35,428)","Ki (hSERT; hSERT Ki ± SD, [3H]citalopram)",Ki (h5-HT1A receptor),Ki (h5-HT2A receptor),"fold difference in 5-HT2A receptor affinity between Ψ derivative and its 2,4,5-trisubstituted counterpart (h5-HT2A receptor)",Selectivity (binding ratio) 5-HT2A/5-HT1A (h5-HT2A receptor),Selectivity (binding ratio) 5-HT2A/5-HT2C (h5-HT2A receptor),Ki (hD2 receptor),Ki (hα2A adrenergic receptor),Ki (hDAT; DAT Ki),"Ki (hSERT; SERT Ki, no binding observed)",fold increase in 5-HT2A affinity over the 4-methoxy analog (h5-HT2A receptor)
"COc1cc(OC)c(CC(C)N)c(OC)c1 (stereo not drawn) [TMA-6, 2,4,6-trimethoxyamphetamine]",> 30000 nM,> 8500 nM,> 7500 nM,> 5600 nM,270 ± 18 nM,2–5 fold,>21,6.7,> 6000 nM,3100 nM,,,
"COc1cc(OC)c(CCN)c(OC)c1 [Ψ-2C-O-1, 2,4,6-trimethoxyphenethylamine]",2300 nM,> 8500 nM,> 7500 nM,960 ± 90 nM,300 ± 40 nM,,3.2,4,> 6000 nM,780 ± 70 nM,,,
"CCOc1cc(OC)c(CCN)c(OC)c1 [Ψ-2C-O-2, 2,6-dimethoxy-4-ethoxyphenethylamine]",230 ± 170 nM,> 8500 nM,> 7500 nM,710 ± 30 nM,400 ± 280 nM,,1.8,3.8,> 6000 nM,670 ± 60 nM,,,
"C=C(C)COc1cc(OC)c(CCN)c(OC)c1 [Ψ-2C-O-3, 2,6-dimethoxy-4-methallyloxyphenethylamine]",100 ± 60 nM,7800 nM,> 7500 nM,1010 nM,32 ± 8 nM,,32,6.6,> 6000 nM,280 ± 30 nM,,,
"C=CCOc1cc(OC)c(CCN)c(OC)c1 [Ψ-2C-O-16, 4-allyloxy-2,6-dimethoxyphenethylamine]",34 ± 15 nM,> 8500 nM,> 7500 nM,910 ± 60 nM,54 ± 4 nM,2–5 fold,17,9.3,> 6000 nM,310 ± 20 nM,,,
"COc1cc(OCCF)cc(OC)c1CCN [Ψ-2C-O-21, 2,6-dimethoxy-4-(2-fluoroethoxy)phenethylamine]",80 ± 43 nM,> 8500 nM,> 7500 nM,1600 nM,970 ± 190 nM,,1.6,3.6,> 6000 nM,,,,
"COc1cc(OCC(F)F)cc(OC)c1CCN [Ψ-2C-O-21.5, 4-(2,2-difluoroethoxy)-2,6-dimethoxyphenethylamine]",41 ± 9 nM,> 8500 nM,> 7500 nM,1300 nM,1600 nM,,0.8,1.8,> 6000 nM,1000 nM,,,
"COc1cc(OCC(F)(F)F)cc(OC)c1CCN [Ψ-2C-O-22, 2,6-dimethoxy-4-(2,2,2-trifluoroethoxy)phenethylamine]",47 ± 22 nM,> 8500 nM,> 7500 nM,2400 nM,600 ± 60 nM,,4,3.7,> 6000 nM,1500 nM,,,
"COc1cc(OCc2ccccc2)cc(OC)c1CCN [Ψ-2C-O-27, 4-benzyloxy-2,6-dimethoxyphenethylamine]",3000 nM,1300 nM,> 7500 nM,2100 nM,8 ± 1 nM,,280,15,> 6000 nM,410 ± 20 nM,1300 to 1800 nM,< 7500 nM,
"COc1cc(OC(F)F)cc(OC)c1CCN [Ψ-2C-O-35, 4-(2,2-difluoromethoxy)-2,6-dimethoxyphenethylamine]",> 30000 nM,> 8500 nM,> 7500 nM,4440 nM,72 ± 18 nM,,,7.1,> 6000 nM,450 ± 70 nM,,,3–4 fold
"COc1cc(OC(F)F)cc(OC)c1CC(C)N (stereo not drawn) [Ψ-DODFMO, 4-(2,2-difluoromethoxy)-2,6-dimethoxyamphetamine]",> 30000 nM,> 8500 nM,> 7500 nM,5100 nM,84 ± 23 nM,,61,21,> 6000 nM,2300 nM,,,3–4 fold
"C=CCOc1cc(OC)c(CC(C)N)c(OC)c1 (stereo not drawn) [Ψ-MALM, 4-allyloxy-2,6-dimethoxyamphetamine]",> 30000 nM,> 8500 nM,> 7500 nM,> 5600 nM,75 ± 11 nM,2–5 fold,>75,10,> 6000 nM,1800 nM,,,
"COc1cc(OCc2ccccc2)cc(OC)c1CC(C)N (stereo not drawn) [Ψ-MBnM, 4-benzyloxy-2,6-dimethoxyamphetamine]",> 30000 nM,1800 nM,> 7500 nM,> 5600 nM,21 ± 2 nM,,,13,> 6000 nM,2000 nM,1300 to 1800 nM,< 7500 nM,
"COc1cc(OCC(F)F)cc(OC)c1CC(C)N (stereo not drawn) [Ψ-MDFEM, 4-(2,2-difluoroethoxy)-2,6-dimethoxyamphetamine]",850 ± 500 nM,5400 nM,> 7500 nM,> 5600 nM,950 ± 240 nM,,>6,10,> 6000 nM,3300 nM,,,
